From patent publication US3969523A, “Antiphlogistic pharmaceutical compositions containing a 1-(nicotinoyl or isonicotinoyl)-3-biphenylyl-alkanone-(2)” (Boehringer Ingelheim GmbH, priority 1973, dated 1976)

How the values were obtained:
[1] = tested on: kaolin-induced edema of the hind paw of the rat; experiment: Antiphlogistic activity: antiexsudative effect on kaolin-induced edema of the hind paw of the rat, oral; format: in vivo; conditions: p.o., dose leading to 35% reduction of swelling, graphically determined
Protocol: (§1) The antiphlogistic activity was tested to determine the antiexsudative effect on the kaolin-induced edema (see Hillebrecht in Arzneimittelforschung 4, 607 - 614 (1954) and the carrageenin-induced edema (see Winter in Proc. Soc. Exper. Biol. Med. 111, 544 (1962)) of the hind paw of the rat after oral administration of at least 3 doses to at least 10 animals per dose. The dose leading to a 35% reduction of the swelling (ED35) was graphically determined.

[2] = tested on: carrageenin-induced edema of the hind paw of the rat; experiment: Antiphlogistic activity: antiexsudative effect on carrageenin-induced edema of the hind paw of the rat, oral; format: in vivo; conditions: p.o., dose leading to 35% reduction of swelling, graphically determined
Protocol: as §1

in vivo = conditions: rat, po
Protocol: The ulcerogenic activity in the rat was determined after oral administration of the compound for 3 times after 24 hours each time. The animals were killed 4 hours after that, and the number of the animals having an ulcer was recorded.

[3] = Peroral acute toxicity in rats; conditions: in vivo, po; rat; 50% died within 14 days; Litchfield and Wilcoxon
Protocol: The peroral acute toxicity of the compounds was determined on groups of 10 rats each.

CC(C(=O)COC(=O)c1ccncc1)c1ccc(-c2ccccc2F)cc1 (stereo not shown) [A, 1-isonicotinoyloxy-3-(2'-fluoro-4"-biphenylyl)-butanone-(2)]
ED35 [1]: 14 mg/kg | ED35 [2]: 22.5 mg/kg | TD50 (in vivo): 71 mg/kg | LD50 at 336 h [3]: 1170 mg/kg
